“Also recorded” adds a separate entry of the source.
Tests used:
[1] = tested on: SMARCB1; test: Abundance of SWI/SNF subunit SMARCB1 in soluble nuclear extracts; format: cell-based; conditions: 1 μM, 24 hours
Procedure: (§1) The inventors investigated the effect of a number of PROTAC inhibitors on fusion-positive and negative RMS cell models. The experiment was designed as follows. Fusion-positive RMS (RH4 and RH30) and fusion-negative RMS (RD and CTR) cells were treated with DMSO or 1 μM dBRD9, DL-ds2-4, or SMARCA4-31 for 24 hours. Soluble nuclear extracts were prepared to assess target degradation as well as abundance of additional SWI/SNF complex subunits and the transcription factor FOXO1 (wild-type and PAX3-FOXO1 fusion).

[2] = tested on: SMARCC1; test: Abundance of SWI/SNF subunit SMARCC1 in soluble nuclear extracts; format: cell-based; conditions: 1 μM, 24 hours
Procedure: as §1

[3] = tested on: RH4 cells; test: Incucyte cell proliferation, growth-curve AUC dose-response, RH4; format: cell-based, human; conditions: RH4 (fusion-positive), 96-hour, AUC of growth curve, initial data, FIG. 7A
Procedure: (§2) In FIG. 7A, RH4 (a PAX3-FOXO1 fusion-positive rhabdomyosarcoma cell line) and SMS-CTR (a PAX3-FOXO1 fusion-negative rhabdomyosarcoma cell line) cells were treated with increasing concentrations of SMARCA4-31 or DL-dS2-4 for a 96-hour period, and cell proliferation was monitored on an Incucyte® system. […] We explored why RH4 and SMS-CTR cells display relatively high sensitivity to PROTAC treatment. The CRBN gene expresses the protein cereblon, a component of an E3 ubiquitin ligase complex. By analyzing CRBN gene expression using RNA-seq from the Cancer Cell Line Encyclopedia (CCLE) database, we show in FIG. 7B, that RH4 and SMS-CTR cells express high levels of CRBN compared to other rhabdomyosarcoma (RMS) cell lines.

[4] = biological target: T1, BRD9 (Homo sapiens, UniProt Q9H8M2); test: Abundance of GBAF subunit BRD9 in soluble nuclear extracts; format: cell-based; conditions: 1 μM, 24 hours
T1 construct: Soluble nuclear extracts were prepared to assess target degradation as well as abundance of additional SWI/SNF complex subunits; endogenous in cells; host or cells: RH4, RH30, RD, CTR rhabdomyosarcoma cells
T1 sequence (Q9H8M2 1-597): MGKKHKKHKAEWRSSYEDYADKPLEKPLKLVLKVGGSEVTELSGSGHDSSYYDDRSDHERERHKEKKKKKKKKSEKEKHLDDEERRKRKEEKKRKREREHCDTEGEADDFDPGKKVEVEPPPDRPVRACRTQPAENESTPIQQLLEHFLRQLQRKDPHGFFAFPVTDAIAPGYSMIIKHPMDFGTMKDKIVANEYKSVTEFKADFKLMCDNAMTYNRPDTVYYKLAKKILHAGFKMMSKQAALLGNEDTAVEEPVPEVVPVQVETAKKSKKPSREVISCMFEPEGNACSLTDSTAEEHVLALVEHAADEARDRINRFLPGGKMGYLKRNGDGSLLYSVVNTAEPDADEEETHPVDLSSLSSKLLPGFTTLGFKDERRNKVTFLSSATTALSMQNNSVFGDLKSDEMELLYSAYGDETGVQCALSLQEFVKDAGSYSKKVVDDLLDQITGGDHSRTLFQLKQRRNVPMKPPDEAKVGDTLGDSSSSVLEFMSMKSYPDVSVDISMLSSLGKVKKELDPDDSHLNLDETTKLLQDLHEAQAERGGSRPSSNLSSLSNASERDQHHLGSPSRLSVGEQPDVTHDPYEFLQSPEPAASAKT
Procedure: as §1

[5] = tested on: DPF2; test: Abundance of BAF subunit DPF2 in soluble nuclear extracts; format: cell-based; conditions: 1 μM, 24 hours
Procedure: as §1

[6] = biological target: T2, PBRM1 (Homo sapiens, UniProt Q86U86); test: Abundance of PBAF subunit PBRM1 in soluble nuclear extracts; format: cell-based; conditions: 24 hours; for degradation of dedicated PBAF subunit PBRM1: 1 μM, soluble nuclear extracts
T2 construct: Soluble nuclear extracts were prepared to assess target degradation as well as abundance of additional SWI/SNF complex subunits; endogenous in cells; host or cells: RH4 (washout experiment) and other RMS cells
Procedure: as §1
(§3) The inventors also investigated whether the effect of the compounds was reversible. Fusion-positive RMS RH4 cells were treated for 24 hours with DMSO including […] dBRD9, DL-ds2-4, or SMARCA4-31. After the treatment period cells were collected or washed extensively to remove the compound and incubated in untreated growth media for an additional 24-hour period. Soluble nuclear extracts were prepared to assess target degradation and recovery.

[7] = biological target: T3, FOXO1 (Homo sapiens, UniProt Q12778); test: Western blot of soluble nuclear extracts: wild-type FOXO1 loss in CTR cells; format: cell-based; conditions: 1 μM, 24 hours
T3 construct: In CTR cells, which only express the wild-type FOXO1; endogenous in cells; host or cells: CTR (SMS-CTR) cells
Procedure: as §1

[8] = tested on: SMS-CTR cells; test: Incucyte cell proliferation, growth-curve AUC dose-response, SMS-CTR; format: cell-based; conditions: SMS-CTR (fusion-negative), 96-hour, AUC of growth curve, initial data, FIG. 7A
Procedure: as §2

[9] = tested on: SMARCA4 and SMARCA2; test: Western blot of soluble nuclear extracts: ATPase (SMARCA4/SMARCA2) degradation in RH4 / rhabdomyosarcoma cells; format: cell-based, human; conditions: for PROTAC exposure time until ATPase depletion is observed: 125 nM SMARCA4-31 or 250 nM DL-dS2-4, FIG. 6B; for dose required for maximal ATPase depletion: FIG. 6A; for loss of ATPases SMARCA4/SMARCA2: rhabdomyosarcoma cells, 1 μM, 24-hour treatment, western blot
Procedure: as §1, §3
(§4) In FIG. 6A, RH4 cells were treated for 24 hours with the indicated dose of SMARCA4-31 (labeled S4-31) or DL-dS2-4 (labeled S2-4).
(§5) In FIG. 6B, RH4 cells were treated with 125 nM SMARCA4-31 (labeled S4-31) or 250 nM DL-dS2-4 (labeled S2-4) for the indicated time.

[10] = tested on: PAX3-FOXO1 fusion; test: Western blot of soluble nuclear extracts: PAX3-FOXO1 fusion loss in RH4 cells; format: cell-based, human; conditions: 24 hours; for loss of the PAX3-FOXO1 fusion: 1 μM; for PROTAC concentration at which PAX3-FOXO1 is fully depleted: FIG. 6A
Procedure: as §1, §3, §4, §5

[11] = tested on: MYOD1; test: LC/MS of BAF-associated transcription factors in rhabdomyosarcoma cells: MYOD1; format: cell-based; conditions: 1 μM, 24-hour treatment
Excerpt: (§6) In addition to PAX3-FOXO1, depleted core-regulatory transcription factors included MYOD1, an essential factor in rhabdomyosarcoma cell growth.

[12] = biological target: T4, PAX3-FOXO1 (Homo sapiens, UniProt P23760); test: LC/MS of BAF-associated transcription factors in rhabdomyosarcoma cells: PAX3-FOXO1; format: cell-based; conditions: 1 μM, 24-hour treatment
T4 construct: endogenous in cells
Excerpt: as §6

[13] = tested on: RH4 cells; test: Tn5 transposition library fragment length distribution (chromatin accessibility) in RH4 cells; format: cell-based, human; conditions: 24 hours, with or without washout and 24-hour recovery, FIG. 5
Procedure: Finally, the inventors determined if the reversible disruption of the SWU/SNF complex results in altered chromatin accessibility. FP-RMS RH4 cells were treated for 24 hours with DMSO or SMARCA4-31. A third group was treated with SMARCA4-31 for 24 hours before washout, and a 24-hour recovery period. 50.000 cells were used. Tn5 transposition followed by Illumina library amplification (15 cycles). Libraries were run on Bioanalyzer to assess fragment length distribution.

T2 sequence (Q86U86 whole entry): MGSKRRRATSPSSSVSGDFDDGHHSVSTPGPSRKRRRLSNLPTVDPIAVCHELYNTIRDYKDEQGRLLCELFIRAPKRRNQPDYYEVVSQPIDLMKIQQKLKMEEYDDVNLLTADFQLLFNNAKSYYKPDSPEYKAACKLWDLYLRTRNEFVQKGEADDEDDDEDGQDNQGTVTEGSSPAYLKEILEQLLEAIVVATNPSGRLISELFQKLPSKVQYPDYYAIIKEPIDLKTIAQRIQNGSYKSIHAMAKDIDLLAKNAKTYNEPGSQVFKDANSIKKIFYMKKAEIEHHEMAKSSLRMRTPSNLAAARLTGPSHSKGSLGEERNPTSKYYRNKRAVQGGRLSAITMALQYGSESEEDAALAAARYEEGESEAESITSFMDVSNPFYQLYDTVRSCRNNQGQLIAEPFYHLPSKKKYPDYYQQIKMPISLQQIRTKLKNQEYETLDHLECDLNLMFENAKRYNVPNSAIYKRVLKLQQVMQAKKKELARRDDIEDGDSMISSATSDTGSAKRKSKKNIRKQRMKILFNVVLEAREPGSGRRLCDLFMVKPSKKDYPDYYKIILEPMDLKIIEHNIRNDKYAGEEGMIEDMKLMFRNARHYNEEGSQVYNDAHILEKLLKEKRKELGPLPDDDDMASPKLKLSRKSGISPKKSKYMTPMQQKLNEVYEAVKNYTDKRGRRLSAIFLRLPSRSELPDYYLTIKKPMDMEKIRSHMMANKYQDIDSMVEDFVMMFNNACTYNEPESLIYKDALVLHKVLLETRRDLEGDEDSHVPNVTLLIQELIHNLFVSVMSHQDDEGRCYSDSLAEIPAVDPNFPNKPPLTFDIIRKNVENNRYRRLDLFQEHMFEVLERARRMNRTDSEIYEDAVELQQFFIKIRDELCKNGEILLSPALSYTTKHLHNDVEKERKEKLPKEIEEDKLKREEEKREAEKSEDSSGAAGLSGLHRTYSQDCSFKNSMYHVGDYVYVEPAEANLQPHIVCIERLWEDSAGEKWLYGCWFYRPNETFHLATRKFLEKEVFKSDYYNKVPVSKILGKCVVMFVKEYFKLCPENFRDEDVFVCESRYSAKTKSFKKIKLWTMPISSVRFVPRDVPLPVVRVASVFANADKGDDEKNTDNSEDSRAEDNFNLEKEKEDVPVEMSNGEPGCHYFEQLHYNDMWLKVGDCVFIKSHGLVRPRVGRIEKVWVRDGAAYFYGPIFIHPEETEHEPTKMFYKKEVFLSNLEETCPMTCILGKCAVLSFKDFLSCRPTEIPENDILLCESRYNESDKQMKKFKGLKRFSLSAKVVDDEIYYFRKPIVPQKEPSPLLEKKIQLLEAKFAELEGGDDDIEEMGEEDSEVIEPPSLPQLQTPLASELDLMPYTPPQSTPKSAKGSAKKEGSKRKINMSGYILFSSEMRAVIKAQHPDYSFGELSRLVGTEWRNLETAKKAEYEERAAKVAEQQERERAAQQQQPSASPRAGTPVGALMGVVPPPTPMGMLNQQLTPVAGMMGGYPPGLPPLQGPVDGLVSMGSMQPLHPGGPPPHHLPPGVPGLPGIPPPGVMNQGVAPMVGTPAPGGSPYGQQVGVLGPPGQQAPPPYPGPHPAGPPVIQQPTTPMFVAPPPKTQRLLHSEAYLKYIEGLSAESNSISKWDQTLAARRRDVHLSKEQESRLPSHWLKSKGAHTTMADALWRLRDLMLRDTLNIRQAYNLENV
T3 sequence (Q12778 whole entry): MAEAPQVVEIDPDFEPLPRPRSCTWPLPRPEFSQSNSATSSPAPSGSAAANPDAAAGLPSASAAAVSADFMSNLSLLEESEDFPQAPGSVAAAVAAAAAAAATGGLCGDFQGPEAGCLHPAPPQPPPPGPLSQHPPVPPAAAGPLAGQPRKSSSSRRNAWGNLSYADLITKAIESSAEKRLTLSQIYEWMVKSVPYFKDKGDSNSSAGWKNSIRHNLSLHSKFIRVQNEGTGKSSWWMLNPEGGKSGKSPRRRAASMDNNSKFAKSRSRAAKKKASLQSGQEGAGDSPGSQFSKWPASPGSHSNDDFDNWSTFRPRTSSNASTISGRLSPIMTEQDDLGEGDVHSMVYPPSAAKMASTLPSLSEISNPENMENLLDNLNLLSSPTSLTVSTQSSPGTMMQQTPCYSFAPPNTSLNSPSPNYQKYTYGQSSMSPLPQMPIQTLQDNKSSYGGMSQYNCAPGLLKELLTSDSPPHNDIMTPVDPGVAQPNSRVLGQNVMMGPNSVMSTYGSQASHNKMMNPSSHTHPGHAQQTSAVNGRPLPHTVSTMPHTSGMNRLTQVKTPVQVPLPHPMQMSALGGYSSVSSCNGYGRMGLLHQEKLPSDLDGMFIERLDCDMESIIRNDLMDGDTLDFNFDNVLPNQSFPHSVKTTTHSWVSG
T4 sequence (P23760 with tags, fused parts or gaps limits assumed): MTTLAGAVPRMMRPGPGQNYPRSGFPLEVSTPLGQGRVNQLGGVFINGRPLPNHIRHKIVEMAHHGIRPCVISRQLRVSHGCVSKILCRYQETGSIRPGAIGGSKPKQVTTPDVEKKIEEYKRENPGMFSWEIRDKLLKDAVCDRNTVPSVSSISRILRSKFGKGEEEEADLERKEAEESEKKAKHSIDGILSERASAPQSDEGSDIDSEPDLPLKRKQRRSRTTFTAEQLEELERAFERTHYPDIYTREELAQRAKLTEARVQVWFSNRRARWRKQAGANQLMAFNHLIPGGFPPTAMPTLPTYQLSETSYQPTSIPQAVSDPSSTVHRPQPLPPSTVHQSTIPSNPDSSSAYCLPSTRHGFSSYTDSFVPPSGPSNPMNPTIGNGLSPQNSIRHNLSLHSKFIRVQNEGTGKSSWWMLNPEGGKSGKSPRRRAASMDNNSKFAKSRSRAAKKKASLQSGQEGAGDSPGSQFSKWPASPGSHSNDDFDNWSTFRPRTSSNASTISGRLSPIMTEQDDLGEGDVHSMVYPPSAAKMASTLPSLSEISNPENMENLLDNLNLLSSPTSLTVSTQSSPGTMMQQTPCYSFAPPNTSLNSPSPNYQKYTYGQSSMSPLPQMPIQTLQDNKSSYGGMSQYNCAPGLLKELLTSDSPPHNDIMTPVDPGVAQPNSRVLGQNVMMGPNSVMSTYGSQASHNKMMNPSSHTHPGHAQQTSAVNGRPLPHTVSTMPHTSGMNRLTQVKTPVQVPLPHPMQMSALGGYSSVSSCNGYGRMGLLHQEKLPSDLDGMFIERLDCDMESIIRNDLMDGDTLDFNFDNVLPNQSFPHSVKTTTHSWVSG

Row | Compound | abundance of core subunit SMARCB1 [1] | degradation of core SWI/SNF subunit SMARCC1 [2] | efficacy in inhibiting cell growth (concentration range) [3] | abundance of GBAF subunit BRD9 [4] | abundance of BAF subunit DPF2 [5] | degradation of dedicated PBAF subunit PBRM1 [6] | loss of wild-type FOXO1 [7] | efficacy in inhibiting cell growth (concentration range) [8] | PROTAC exposure time until ATPase depletion is observed ([9]; RH4 cells) | dose required for maximal ATPase depletion ([9]; RH4 cells, 24 hours) [nM] | loss of ATPases SMARCA4/SMARCA2 [9] | loss of the PAX3-FOXO1 fusion [10] | PROTAC concentration at which PAX3-FOXO1 is fully depleted [10] [nM] | MYOD1 depletion by LC/MS [11] | PAX3-FOXO1 depletion by LC/MS [12] | extent of PBRM1 degradation, reversibility experiment ([6]; RH4 cells, 1 µM, FIG. 4) | chromatin accessibility (fragment length signatures) [13] | extent of SMARCA4 degradation, reversibility experiment ([9]; RH4 cells, 24 hours, 1 µM, FIG. 4) | extent of PAX3-FOXO1 degradation, reversibility experiment ([10]; 1 µM, FIG. 4)
1 | O=C1CCC(N2C(=O)c3cccc(NCCCCNC(=O)c4cccc(C#Cc5cc(NC(=O)Nc6ccnc(Cl)c6)ccn5)c4)c3C2=O)C(=O)N1 (racemic) [DL-dS2-4] | remained intact | degraded | sub-micromolar efficacy | remained intact | remained intact | specific degradation | FOXO1 loss; also recorded: concurrent loss | sub-micromolar efficacy | approximately 20 hours | 250 | concurrent loss | loss of the PAX3-FOXO1 fusion; also recorded: concurrent loss | 62.5 | – | – | – | – | – | –
2 | O=C1CCC(N2C(=O)c3ccc(NCCCCCCCCOCCc4cccc(N5C[C@H]6C[C@@H]5CN6/C=C/C(=O)c5ccccc5O)c4)cc3C2=O)C(=O)N1 (some centres unmarked) [SMARCA4-31] | remained intact | degraded | sub-micromolar efficacy | remained intact | remained intact | specific degradation | FOXO1 loss; also recorded: concurrent loss | sub-micromolar efficacy | approximately 20 hours | 125 | concurrent loss | loss of the PAX3-FOXO1 fusion; also recorded: concurrent loss | 62.5 | depleted | depleted | More complete degradation | alterations to the accessibility landscape | More complete degradation | More complete degradation
